Some test systems named below: A498; A549; CCRF-CEM; COLO 205; HCT-116; HCT-15; K562; LOX IMVI; M14; MOLT-4; Malme-3M; NCI-H226; NCI-H460; SF-295; SF-539; SK-MEL-28; SK-OV-3; SNB-75; U-251; UACC-257.
Experiment in all cases: DTP human tumour cell line panel, 48 h

What is called GI50 is the concentration giving 50% growth inhibition.

SMILES strings stand for the structures.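 Following 48 hours of exposure in 96-well plates, responses at five concentrations were used to interpolate endpoints linearly. At the GI50, growth is halved.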 Active and inactive are the calls of the source. Cut-off read from the data, not from the text of the source: active = GI50 up to about 1.1 µM and inactive = higher.

As to `COc1ccc(-c2c(-c3ccccc3)c(C)nc3[nH]c(=S)[nH]c(=S)c23)cc1OC`, the GI50 was 28.2 µM (inactive) in the experiment on A498; 30.3 µM (inactive) in the experiment on A549; 24.7 µM (inactive) in the experiment on CCRF-CEM; 25.3 µM (inactive) in the experiment with COLO 205; 22 µM (inactive) with HCT-116; 30.9 µM in the experiment on HCT-15. The GI50 is 31.2 µM (inactive) in the experiment on K562; 28.2 µM (inactive) with LOX IMVI; 36.1 µM (inactive) with M14; 12 µM (inactive) in the experiment with MOLT-4; 30.8 µM (inactive) in the experiment on Malme-3M; 38 µM (inactive) with NCI-H226. Also, the GI50 was 24.3 µM (inactive) in the experiment with NCI-H460; 42.1 µM (inactive) with SF-295; 19.8 µM (inactive) in the experiment on SF-539; 22.1 µM (inactive) with SK-MEL-28; 37 µM (inactive) with SK-OV-3; 42 µM (inactive) in the experiment on SNB-75. Moreover, the values for the GI50 in the experiment on U-251 and with UACC-257 were 33.4 µM (inactive) and 36.6 µM (inactive), respectively.
For `CCOC(=O)c1c(N2CCCC2)[nH]c(=O)c(C(c2cccs2)c2c(O)c(C(=O)OCC)c(N3CCCC3)[nH]c2=O)c1O`, the GI50 in the experiment on A498 was > 100 µM (inactive); in the experiment with A549, > 100 µM (inactive); with CCRF-CEM, 78.2 µM (inactive); in the experiment with COLO 205, > 100 µM (inactive); in the experiment with HCT-116 it was > 100 µM (inactive); in the experiment on HCT-15, above 100 µM. The GI50 in the experiment on K562, with LOX IMVI, in the experiment with M14, in the experiment on MOLT-4, with Malme-3M and in the experiment on NCI-H226 was > 100 µM (inactive) in each case. Besides, the GI50 with NCI-H460, in the experiment with SF-295, in the experiment on SF-539, in the experiment on SK-MEL-28, in the experiment on SK-OV-3 and in the experiment with SNB-75 was > 100 µM (inactive) each time. Also, the GI50 in the experiment with U-251 and with UACC-257 was > 100 µM (inactive) in each case.
With `C/C(=N\NC(=O)c1ccncc1)c1ccc2ccccc2c1O`, the GI50 is 11.2 µM (inactive) in the experiment on A498; 1.77 µM (inactive) with A549; 0.232 µM (active) with CCRF-CEM; 0.561 µM (active) in the experiment on COLO 205; 0.608 µM (active) with HCT-116; 0.419 µM in the experiment with HCT-15. The GI50 with K562 was 1.84 µM (inactive); in the experiment with LOX IMVI, 1.04 µM (active); in the experiment on M14, 2.08 µM (inactive); with MOLT-4 it was 0.513 µM (active); in the experiment on Malme-3M, 1.19 µM (inactive); in the experiment with NCI-H226, 1.77 µM (inactive). Moreover, the GI50 in the experiment with NCI-H460 was 0.356 µM (active); in the experiment with SF-295, 1.77 µM (inactive); in the experiment on SF-539, 1.46 µM (inactive); with SK-MEL-28, 17.2 µM (inactive); in the experiment on SK-OV-3, 4.47 µM (inactive); in the experiment with SNB-75, 3.66 µM (inactive). The GI50 with U-251 was 2.69 µM (inactive); with UACC-257, 2.71 µM (inactive).
Take `COc1cc(C=O)cc(/C=N/c2ccc(Br)cc2)c1O`: the GI50 in the experiment on A498 is 16.4 µM (inactive); in the experiment on A549, 4.85 µM (inactive); in the experiment on CCRF-CEM, 7.59 µM (inactive); in the experiment on COLO 205, 4.09 µM (inactive); with HCT-116 it was 6.79 µM (inactive); with HCT-15, 2.15 µM. In addition, the 50% growth inhibitory concentration (GI50) with K562 was 0.555 µM (active); with LOX IMVI, 0.16 µM (active); with M14, 1.66 µM (inactive); in the experiment with MOLT-4, 22 µM (inactive); in the experiment on Malme-3M, 4.04 µM (inactive); in the experiment with NCI-H226 it was 2.59 µM (inactive). For the same compound, the GI50 with NCI-H460 was 2.71 µM (inactive); in the experiment with SF-295, 2.52 µM (inactive); in the experiment with SF-539, 2.38 µM (inactive); in the experiment on SK-MEL-28, 6.71 µM (inactive); in the experiment on SK-OV-3, 2.17 µM (inactive); with SNB-75 it was 23.8 µM (inactive). Further, the GI50 with U-251 was 4.57 µM (inactive); in the experiment on UACC-257, 5.75 µM (inactive).
With `O=C1CC2C(=O)N(Cc3ccccc3)C1C(S(=O)(=O)c1ccccc1)C2S(=O)(=O)c1ccccc1` (stereo not given), the GI50 with A498 is 18.3 µM (inactive); in the experiment on A549, 19.1 µM (inactive); in the experiment on CCRF-CEM it was 1.11 µM (active); with COLO 205 it was 1.69 µM (inactive); in the experiment on HCT-116 it was 4.68 µM (inactive); in the experiment on HCT-15, 1.32 µM. In addition, the GI50 is 2.09 µM (inactive) with K562; 1.68 µM (inactive) in the experiment on LOX IMVI; 1.92 µM (inactive) with M14; 2.55 µM (inactive) with MOLT-4; 2 µM (inactive) in the experiment with Malme-3M; 13.3 µM (inactive) with NCI-H226. In addition, the GI50 is 17.7 µM (inactive) in the experiment with NCI-H460; 22.6 µM (inactive) in the experiment with SF-295; 2.05 µM (inactive) with SF-539; 1.9 µM (inactive) in the experiment with SK-MEL-28; 17.6 µM (inactive) in the experiment on SK-OV-3; 7.28 µM (inactive) in the experiment with SNB-75. The GI50 with U-251 is 2.92 µM (inactive); in the experiment on UACC-257, 1.61 µM (inactive).
In the case of `[O-][S+]1c2ccccc2N=C(c2ccc(Cl)cc2)CC1c1cccs1` (stereo not given), the GI50 with A498 is 97.1 µM (inactive); with A549, 32.4 µM (inactive); in the experiment with CCRF-CEM, 17.3 µM (inactive); in the experiment with COLO 205, 20 µM (inactive); in the experiment with HCT-116 it was 10.9 µM (inactive); in the experiment on HCT-15, 15.5 µM. Besides, the GI50 in the experiment on K562 was 9.25 µM (inactive); with LOX IMVI it was 12.6 µM (inactive); in the experiment with M14, 15.5 µM (inactive); with MOLT-4, 26 µM (inactive); in the experiment on Malme-3M, 57.8 µM (inactive); in the experiment on NCI-H226 it was 90.4 µM (inactive). Moreover, the GI50 was 36.8 µM (inactive) with NCI-H460; 16.6 µM (inactive) in the experiment on SF-295; 16.7 µM (inactive) in the experiment on SF-539; 19.3 µM (inactive) in the experiment on SK-MEL-28; 28.9 µM (inactive) in the experiment on SK-OV-3; 46.7 µM (inactive) in the experiment on SNB-75. Moreover, the GI50 in the experiment with U-251 was 15.5 µM (inactive); with UACC-257, 23.2 µM (inactive).
For `CCOC(=O)C1Nc2ccc([N+](=O)[O-])cc2[C@H]2OCC[C@@H]12` (stereo not given in full), the GI50 was > 100 µM (inactive) with A498; > 100 µM (inactive) with A549; > 100 µM (inactive) with CCRF-CEM; > 100 µM (inactive) in the experiment on COLO 205; > 100 µM (inactive) in the experiment with HCT-116; above 100 µM in the experiment with HCT-15. The GI50 in the experiment with K562, with LOX IMVI, in the experiment on M14, in the experiment with MOLT-4, in the experiment with Malme-3M and in the experiment on NCI-H226 was > 100 µM (inactive) throughout. The GI50 with NCI-H460, with SF-295, in the experiment on SF-539, in the experiment with SK-MEL-28, with SK-OV-3 and with SNB-75 was > 100 µM (inactive) each time. Further, the GI50 in the experiment on U-251 and in the experiment with UACC-257 was > 100 µM (inactive) in each case.

These data come from ChEMBL document CHEMBL1201862, “PubChem BioAssay data set” (2004).
